Laboratory results reported in patent publication US5229123A, “Antifungal agents” (Hoffmann-La Roche Inc., priority 1991, dated 1993).
Read-outs that look alike come from different tables or passages of the source.

Key:
[1] = Solubility (physico-chemical properties); type: physicochemical
From the text: The physico-chemical properties of Xanthofulvin obtained as described in the Example given hereinbelow are as follows: […]

Chs 2 = target: T1, Chs 2 (Saccharomyces cerevisiae, UniProt P14180); assay: Inhibitory activity against Chs 2 (chitin formation from [14C]-UDP-N-acetylglucosamine in permeabilized overproducer cells); type: biochemical
T1 construct: digitonin-permeabilized, trypsin-treated cells
T1 sequence (P14180 whole entry): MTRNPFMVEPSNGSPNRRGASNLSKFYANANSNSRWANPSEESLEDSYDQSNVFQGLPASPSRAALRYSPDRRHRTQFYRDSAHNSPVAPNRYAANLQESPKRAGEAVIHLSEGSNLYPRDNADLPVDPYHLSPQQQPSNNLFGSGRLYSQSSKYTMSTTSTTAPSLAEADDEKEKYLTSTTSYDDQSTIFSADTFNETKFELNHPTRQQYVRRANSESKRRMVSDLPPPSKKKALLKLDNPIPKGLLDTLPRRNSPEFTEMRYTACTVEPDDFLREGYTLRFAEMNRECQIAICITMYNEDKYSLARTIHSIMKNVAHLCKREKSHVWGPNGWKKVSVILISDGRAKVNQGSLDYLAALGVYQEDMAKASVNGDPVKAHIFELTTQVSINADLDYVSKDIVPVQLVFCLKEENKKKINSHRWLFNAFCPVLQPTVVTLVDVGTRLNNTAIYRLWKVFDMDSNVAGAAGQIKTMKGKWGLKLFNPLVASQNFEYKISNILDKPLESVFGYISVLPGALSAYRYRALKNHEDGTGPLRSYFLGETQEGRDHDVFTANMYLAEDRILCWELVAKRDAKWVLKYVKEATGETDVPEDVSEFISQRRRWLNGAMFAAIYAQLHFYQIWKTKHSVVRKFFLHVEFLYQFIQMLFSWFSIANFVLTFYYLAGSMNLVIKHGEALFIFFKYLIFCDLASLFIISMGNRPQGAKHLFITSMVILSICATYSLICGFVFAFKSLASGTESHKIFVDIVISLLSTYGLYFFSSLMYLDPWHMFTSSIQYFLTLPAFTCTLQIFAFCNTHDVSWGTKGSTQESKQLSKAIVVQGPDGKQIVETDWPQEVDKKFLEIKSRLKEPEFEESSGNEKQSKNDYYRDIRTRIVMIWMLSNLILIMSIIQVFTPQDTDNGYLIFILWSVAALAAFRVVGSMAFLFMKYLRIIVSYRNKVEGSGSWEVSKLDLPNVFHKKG
Procedure: (§1) Inhibitory activity of Xanthofulvin against Chs 1 and Chs 2 from Saccharomyces cerevisiae was measured respectively.
(§2) The overproducer employed for Chs 1 was Saccharomyces cerevisiae (ura3) harbouring plasmid (CHSl, URA3). The cells were permeabilized with 0.5% digitonin for 15 min at 30° C., followed by treatment with trypsin at the final concentration of 100 μg/ml for 15 min at 30° C. After addition of trypsin inhibitor from soybean, 50 μl of 2.5×10^7 cells/ml was incubated for 1 hr at 30° C. with 40 μl of assay solution containing 50 mM MES pH 6.5, 5 mM Mg(OAc)2, 32 mM N-acetylglucosamine and 0.1 mM [^14 C]-UDP-N-acetylglucosamine, and 10 μl of sample solution. Reaction was terminated with addition of TCA and cells are collected on the filter and washed with 70% aqueous ethanol containing 0.3M acetic acid. Radioactivity of cells is counted with a liquid scientillation counter. Amount of chitin formed was determined on the basis of radioactivity incorporated into the cells (S. J. Silverman, A. Sburlati, M. J. Slater and E. Cabib. Proc. Natl. Acad. Sci. USA, 85, 4735-4739 (1988)).
Overproducer for Chs 2 was a Saccharomyces cerevisiae strain of disrupted Chs 1 gene (chs1:: URA3, leu2 ) with plasmid (CHS2, LEU2). Assay method was the same as the one for Chs 1 described above except for assay solution. Assay solution for Chs 2 contained 30 mM Tris (pH 7.5), 2.5 mM Co(OAc)2, 32 mM N-acetylglucosamine and 0.1 mM [^14 C]-UDP-N-acetylglucosamine (See: Silverman et al. supra).

Acute toxicity = conditions: in vivo
Chs 1 = target: T2, Chs 1 (Saccharomyces cerevisiae, UniProt P08004); assay: Inhibitory activity against Chs 1 (chitin formation from [14C]-UDP-N-acetylglucosamine in permeabilized overproducer cells); type: biochemical
T2 sequence (P08004 1-1131): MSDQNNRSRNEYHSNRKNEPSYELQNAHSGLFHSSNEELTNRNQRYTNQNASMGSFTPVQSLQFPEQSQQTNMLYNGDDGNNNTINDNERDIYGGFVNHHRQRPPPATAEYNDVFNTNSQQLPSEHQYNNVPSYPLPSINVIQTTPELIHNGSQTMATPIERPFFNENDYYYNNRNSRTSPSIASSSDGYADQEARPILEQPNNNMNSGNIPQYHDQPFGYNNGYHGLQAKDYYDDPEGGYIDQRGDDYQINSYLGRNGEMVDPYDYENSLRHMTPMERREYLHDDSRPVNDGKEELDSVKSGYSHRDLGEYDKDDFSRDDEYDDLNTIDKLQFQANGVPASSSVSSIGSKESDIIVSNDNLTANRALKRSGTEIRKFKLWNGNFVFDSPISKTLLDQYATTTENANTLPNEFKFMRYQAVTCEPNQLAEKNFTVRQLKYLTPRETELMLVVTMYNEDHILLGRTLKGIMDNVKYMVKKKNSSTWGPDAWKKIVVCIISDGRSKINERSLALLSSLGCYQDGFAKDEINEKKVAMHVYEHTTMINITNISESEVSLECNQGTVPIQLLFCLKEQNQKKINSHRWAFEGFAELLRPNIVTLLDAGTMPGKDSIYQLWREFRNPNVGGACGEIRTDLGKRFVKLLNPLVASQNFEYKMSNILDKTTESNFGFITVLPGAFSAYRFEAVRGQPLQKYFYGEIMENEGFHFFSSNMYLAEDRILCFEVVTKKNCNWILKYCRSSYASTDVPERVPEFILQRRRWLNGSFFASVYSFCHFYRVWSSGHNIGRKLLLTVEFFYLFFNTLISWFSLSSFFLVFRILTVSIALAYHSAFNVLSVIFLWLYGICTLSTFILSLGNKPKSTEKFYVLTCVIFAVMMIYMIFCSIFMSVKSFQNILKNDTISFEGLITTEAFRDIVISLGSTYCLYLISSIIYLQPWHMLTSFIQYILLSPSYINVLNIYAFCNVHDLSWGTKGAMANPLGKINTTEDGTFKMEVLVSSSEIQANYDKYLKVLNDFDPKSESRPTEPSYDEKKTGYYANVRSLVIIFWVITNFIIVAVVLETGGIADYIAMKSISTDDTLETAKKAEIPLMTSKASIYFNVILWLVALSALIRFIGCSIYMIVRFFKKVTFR
Procedure: as §1, §2

[2] = target: chitin synthase 1 (Chs 1) (Saccharomyces cerevisiae, UniProt P08004); conditions: literature, E. Cabib 1991; cited from earlier work

Compound	Solubility ([1]; in DMSO)	Solubility ([1]; in H2O)	Solubility ([1]; in MeOH)	Solubility ([1]; in n-hexane)	IC50 (Chs 2; Chs 2 overproducer, Tris pH 7.5, Co(OAc)2, read-out: IC50 Chs 2) [nM]	Chs 2 inhibiting activity (in words) (Chs 2; summary of Table 1)	Acute toxicity (Acute toxicity)	IC50 (Chs 1; Chs 1 overproducer, MES pH 6.5, Mg(OAc)2, 1 hr at 30° C., read-out: IC50 Chs 1) [nM]	Inhibition of chitin synthase 1 versus Chs 2 (in words) [2]	IC50 (Chs 2) [nM]	IC50 (Chs 1) [nM]
CC(=O)c1c(C)c(/C(O)=C2\COc3cc(O)c(O)c(C(=O)O)c3C2=O)cc2c(=O)c3c(C(=O)O)c(O)c(O)cc3oc12 [Xanthofulvin]	Soluble	Slightly soluble	Soluble	Insoluble	2200	high Chs 2 inhibiting activity	not observed	> 200000	–	–	–
C[C@@H]([C@H](N)C(=O)N[C@H](C(=O)O)[C@H]1OC(n2cc(C=O)nc2O)[C@H](O)[C@@H]1O)[C@H](O)c1ccc(O)cn1 (stereo partly drawn) [nikkomycin X]	–	–	–	–	–	–	–	–	inhibit chitin synthase 1 (Chs 1) rather than Chs 2	–	–
NC(=O)OC[C@H](O)[C@@H](O)[C@H](N)C(=O)N[C@H](C(=O)O)[C@H]1O[C@@H](n2cc(C(=O)O)c(=O)[nH]c2=O)[C@H](O)[C@@H]1O [polyoxin D, reference compound]	–	–	–	–	–	–	–	–	inhibit chitin synthase 1 (Chs 1) rather than Chs 2	10300	260
